Measured values published in patent publication US20230303540A1 (Merck Sharp & Dohme LLC, priority 2020, published 2023).

Biological target: GST-tagged truncated human mutant G2019S LRRK2 (Homo sapiens, UniProt Q5S007, G2019S)
Assay: LRRK2 G2019S Km ATP LanthaScreen assay
Type: biochemical
Conditions: 134 μM ATP (Km ATP), LRRKtide substrate, mean IC50 values; read-out: LRRK2 pIC50 (converted)
Experimental: Unless otherwise noted, all reactions are magnetically stirred. Unless otherwise noted, when diethyl ether is used in the experiments described below, it is Fisher ACS certified material and is stabilized with BHT. Unless otherwise noted, “concentrated” and/or “solvent removed under reduced pressure” means evaporating the solvent from a solution or mixture using a rotary evaporator or vacuum pump. Unless otherwise noted, flash chromatography is carried out on a Teledyne Isco (Lincoln, NE), Analogix (Burlington, WI), or Biotage (Stockholm, SWE) automated chromatography system using a commercially available cartridge as the column. Columns may be purchased from Teledyne Isco, Analogix, Biotage, Varian (Palo Alto, CA), or Supelco (Bellefonte, PA) and are usually filled with silica gel as the stationary phase. Reverse phase prep-HPLC conditions, where used, can be found at the end of each experimental section. Aqueous solutions were concentrated on a Genevac (Ipswich, ENG) or by freeze-drying/lyophilization. Unless otherwise noted, all LRRK2 pIC50 data presented in tables refers to the LRRK2 G2019S Km ATP LanthaScreen™ assay (Life Technologies Corp., Carlsbad, CA) that is described in the Biological Assay section.
The IC50 values reported herein were measured as follows.
Biological Assay: LRRK2 Km ATP LanthaScreen™ Assay
The LRRK2 kinase activity reported herein as IC50 values was determined with LanthaScreen™ technology from Life Technologies Corporation (Carlsbad, CA) using GST-tagged truncated human mutant G2019S LRRK2 in the presence of the fluorescein-labeled peptide substrate LRRKtide, also from Life Technologies. The data presented for the Km ATP LanthaScreen™ Assay represents mean IC50 values based on several test results and may have reasonable deviations depending on the specific conditions and reagents used. Assays were performed in the presence of 134 μM ATP (Km ATP). Upon completion, the assay was stopped and phosphorylated substrate detected with a terbium (Tb)-labeled anti-pERM antibody (cat. no. PV4898). The compound dose response was prepared by diluting a 10 mM stock of compound to a maximum concentration of 9.99 μM in 100% dimethylsulfoxide followed by custom fold serial dilution in dimethylsulfoxide nine times. Twenty nanoliters of each dilution was spotted via a Labcyte Echo onto a 384-well black-sided plate (Corning 3575) followed by 15 μl of a 1.25 nM enzyme solution in 1× assay buffer (50 mM Tris pH 8.5, 10 mM MgCl2, 0.01% Brij-35, 1 mM EGTA, 2 mM dithiothreitol, 0.05 mM sodium orthovanadate). Following a 15-minute incubation at room temperature, the kinase reaction was started with the addition of 5 μl of 400 nM fluorescein-labeled LRRKtide peptide substrate and 134 μM ATP solution in 1× assay buffer. The reaction was allowed to progress at ambient temperature for 90 minutes. The reaction was then stopped by the addition of 20 μl of TR-FRET Dilution Buffer (Life Technologies, Carlsbad, CA) containing 2 nM Tb-labeled anti-phospho LRRKtide antibody and 10 mM EDTA (Life Technologies, Carlsbad, CA). After an incubation of 1 hour at room temperature, the plate was read on an EnVision multimode plate reader (Perkin Elmer, Waltham, MA) with an excitation wavelength of 337 nm (Laser) and a reading emission at both 520 and 495 nm. Compound IC50s were interpolated from nonlinear regression best fits of the log of the final compound concentration, plotted as a function of the 520/495-nm emission ratio using Activity base. Abase uses a 4 parameter (4P) logistic fit based on the Levenberg-Marquardt algorithm.

In order of falling IC50:
1. CCn1ncc(Nc2ncc3ccc(N4CCCC4C)cc3n2)c1C (single isomer, unassigned) [Ex-1.9, (S) or (R) N-(1-ethyl-5-methyl-1H-pyrazol-4-yl)-7-(2-methylpyrrolidin-1-yl)quinazolin-2-amine]  36.1 nM
2. Cc1cc2cnc(Nc3cnn(C)c3C)nc2cc1N1CCN(C2(C)COCC2O)CC1 (single isomer, unassigned) [Ex-2.2, (3S,4S or 3R,4R)-4-(4-{2-[(1,5-dimethyl-1H-pyrazol-4-yl)amino]-6-methylquinazolin-7-yl}piperazin-1-yl)-4-methyloxolane-3-ol]  36 nM
3. CCn1ncc(Nc2ncc3ccc(N4CCC4C)cc3n2)c1C (single isomer, unassigned) [Ex-1.11, (S) or (R) N-(1-ethyl-5-methyl-1H-pyrazol-4-yl)-7-(2-methylazetidin-1-yl)quinazolin-2-amine]  33.2 nM
4. Cc1c(Nc2ncc3cc(Cl)c(N4CCN(C5(C)COCC5O)CC4)cc3n2)cnn1C (single isomer, unassigned) [Ex-3.37, (3R,4R) or (3S,4S) 4-(4-{6-chloro-2-[(1,5-dimethyl-1H-pyrazol-4-yl)amino]quinazolin-7-yl}piperazin-1-yl)-4-methyloxolan-3-ol]  29.9 nM
5. C[C@]1(O)[C@@H]2CC[C@H]1CN(c1cc3nc(Nc4cnn(C5CC5(F)F)c4Cl)ncc3cc1Cl)C2 (single isomer, unassigned) [Ex-3.41, (R) or (S) (8-syn)-3-(6-chloro-2-{[5-chloro-1-(2,2-difluorocyclopropyl)-1H-pyrazol-4-yl]amino}quinazolin-7-yl)-8-methyl-3-azabicyclo[3.2.1]octan-8-ol]  23 nM
6. CC1(N2CCN(c3cc4nc(Nc5cnn(C6CC6)c5Cl)ncc4cc3Cl)CC2)COCC1O (single isomer, unassigned) [Ex-1.45, (3S,4S or 3R,4R)-4-(4-{6-chloro-2-[(5-chloro-1-cyclopropyl-1H-pyrazol-4-yl)amino]quinazolin-7-yl}piperazin-1-yl)-4-methyloxolan-3-ol]  21.3 nM
7. CCn1ncc(Nc2ncc3ccc(N4CCCC4C)cc3n2)c1C (single isomer, unassigned) [Ex-1.8, (S) or (R) N-(1-ethyl-5-methyl-1H-pyrazol-4-yl)-7-(2-methylpyrrolidin-1-yl)quinazolin-2-amine]  16 nM
8. CCn1ncc(Nc2ncc3ccc(N4CCC4C)cc3n2)c1C (single isomer, unassigned) [Ex-1.10, (S) or (R) N-(1-ethyl-5-methyl-1H-pyrazol-4-yl)-7-(2-methylazetidin-1-yl)quinazolin-2-amine]  13.3 nM
9. Cc1c(Nc2ncc3cc(Cl)c(N4CCC(C)(O)C(C)C4)cc3n2)cnn1C1CC1 (single isomer, unassigned) [Ex-3.47, (3R,4R) or (3S,4S) or (3R,4S) or (3S,4R) 1-{6-chloro-2-[(1-cyclopropyl-5-methyl-1H-pyrazol-4-yl)amino]quinazolin-7-yl}-3,4-dimethylpiperidin-4-ol]  10.2 nM
10. Cc1c(Nc2cc3cc(N4CCN([C@]5(C)COC[C@@H]5O)CC4)c(Cl)cc3cn2)cnn1C1CC1 (single isomer, unassigned) [Ex-1.2, (3R,4R) or (3S,4S) 4-(4-(7-chloro-3-((1-cyclopropyl-5-methyl-1H-pyrazol-4-yl)amino)isoquinolin-6-yl)piperazin-1-yl)-4-methyltetrahydrofuran-3-ol]  8.41 nM
11. CN(C)c1cc2nc(Nc3cnn(C4CC4(F)F)c3Cl)ncc2cc1Cl (single isomer, unassigned) [Ex-3.42, (R) or (S) 6-chloro-N~2~-[5-chloro-1-(2,2-difluorocyclopropyl)-1H-pyrazol-4-yl]-N~7~,N~7~-dimethylquinazoline-2,7-diamine]  7.37 nM
12. Cc1c(Nc2ncc3cc(Cl)c(N4CCN(C5CCCC5C#N)CC4)cc3n2)cnn1C1CC1 (single isomer, unassigned) [Ex-1.7, (3S,4S or 3R,4R)-2-(4-{6-chloro-2-[(1-cyclopropyl-5-methyl-1H-pyrazol-4-yl)amino]quinazolin-7-yl}piperazin-1-yl)cyclopentane-1-carbonitrile]  6.91 nM
13. Cn1nc(Cl)cc1Nc1ncc2cc(Cl)c(N3CCN(C4(C)COCC4O)CC3)cc2n1 (stereo not shown)  5.97 nM
14. Cn1nc(Cl)cc1Nc1ncc2cc(Cl)c(N3CCN([C@@]4(C)COC[C@H]4O)CC3)cc2n1 (single isomer, unassigned)  5.97 nM
15. COCC12CC(n3cc(Nc4ncc5cc(Cl)c(N6CCC7(CC6)COC(CO)C7)cc5n4)cn3)(C1)C2 (single isomer, unassigned) [Ex-3.17, (R) or (S)-{8-[6-chloro-2-({1-[3-(methoxymethyl)bicyclo[1.1.1]pentan-1-yl]-1H-pyrazol-4-yl}amino)quinazolin-7-yl]-2-oxa-8-azaspiro[4.5]decan-3-yl}methanol]  2.28 nM
16. Cc1c(Nc2ncc3cc(Cl)c(N4CCN(C5CCCC5C#N)CC4)cc3n2)cnn1C1CC1 (single isomer, unassigned) [Ex-1.6, (3S,4S or 3R,4R)-2-(4-{6-chloro-2-[(1-cyclopropyl-5-methyl-1H-pyrazol-4-yl)amino]quinazolin-7-yl}piperazin-1-yl)cyclopentane-1-carbonitrile]  1.89 nM
17. Cc1cc2cnc(Nc3cnn(C)c3C)nc2cc1N1CCN(C2COCC2O)CC1 (single isomer, unassigned) [Ex-2.3, (3S,4S or 3R,4R)-4-(4-{2-[(1,5-dimethyl-1H-pyrazol-4-yl)amino]-6-methylquinazolin-7-yl}piperazin-1-yl)oxolan-3-ol]  1.77 nM
18. Cc1c(Nc2cc3cc(N4CCN([C@]5(C)COC[C@@H]5O)CC4)c(Cl)cc3cn2)cnn1C1CC1 (single isomer, unassigned) [Ex-1.1, (3R,4R) or (3S,4S) 4-(4-(7-chloro-3-((1-cyclopropyl-5-methyl-1H-pyrazol-4-yl)amino)isoquinolin-6-yl)piperazin-1-yl)-4-methyltetrahydrofuran-3-ol]  0.716 nM
19. CC1(N2CCN(c3cc4nc(Nc5cnn(C6CC6)c5Cl)ncc4cc3Cl)CC2)COCC1O (single isomer, unassigned) [Ex-1.46, (3S,4S or 3R,4R)-4-(4-{6-chloro-2-[5-chloro-1-cyclopropyl-1H-pyrazol-4-yl)amino]quinazolin-7-yl}piperazin-1-yl)-4-methyloxolane-3-ol]  0.625 nM
20. Cc1c(Nc2ncc3cc(Cl)c(N4CCN(C5(C)COCC5O)CC4)cc3n2)cnn1C (single isomer, unassigned) [Ex-3.43, (3R,4R) or (3S,4S) 4-(4-{6-chloro-2-[(1,5-dimethyl-1H-pyrazol-4-yl)amino]quinazolin-7-yl}piperazin-1-yl)-4-methyloxolan-3-ol]  0.438 nM
21. Cc1cc2cnc(Nc3cnn(C45CC(C4)C5)c3C)nc2cc1N1CCN(C2(C)CCOC2)CC1 (single isomer, unassigned) [Ex-2.4, (3S,4S or 3R,4R)-N-(1-(bicyclo[1.1.1]pentan-1-yl)-5-methyl-1H-pyrazol-4-yl)-6-methyl-7-(4-(3-methyltetrahydrofuran-3-yl)piperazin-1-yl)quinazolin-2-amine]  0.279 nM
22. COCC12CC(n3cc(Nc4ncc5cc(Cl)c(N6CCC7(CC6)COC(CO)C7)cc5n4)cn3)(C1)C2 (single isomer, unassigned) [Ex-3.16, (R) or (S)-{8-[6-chloro-2-({1-[3-(methoxymethyl)bicyclo[1.1.1]pentan-1-yl]-1H-pyrazol-4-yl}amino)quinazolin-7-yl]-2-oxa-8-azaspiro[4.5]decan-3-yl}methanol]  0.218 nM
